For one test, the system named is bacteria. Briefly: Binding of targeting peptides to microorganisms (Table 3). As to conditions: preferably 1x PBS; for Target(s) (microorganisms bound by the targeting peptide) / Target(s) (microorganism bound by the targeting peptide): peptide binding in aqueous buffers that varied depending on peptide solubility.
Another test has as its system microorganisms. Briefly: Morphology, biofilm and growth disruption by peptides (Table 5). It is filed as cell-based. On the set-up: key: A: Peptide aggregates; B: Less hyphal formation; Clumps; Diffuse clumps and small polyps; F: Diffuse growth; H: Thin; I: Growth inhibition; Microcolony formation; Rippled; Small polyps; Thick; W: Halo formation on top, microlonies on bottom. From the text:
In certain embodiments peptides that induce alterations in phenotype or other biological activities can also be used as antimicrobial effector moieties.

Setting [1] is: microorganism the targeting peptide binds, binding in aqueous buffers that varied with peptide solubility.
The mark [2] stands for this setting: microorganism bound by the targeting peptide, binding in aqueous buffers chosen by peptide solubility.

Entries after “also recorded” stand apart in the source; their conditions may differ. Square brackets hold non-standard residues; d marks the D form. Ends that are not written are not given here. dOrn = NCCC[C@@H](N)C(=O)O; Orn = NCCC[C@H](N)C(=O)O

As to ALDCSEQSVILWYETILDKIVGVIK [PF-028], the “Target(s)” value with bacteria (setting [1]) was “S. epidermidis and M. luteus and MRSA”. Besides, the figures for the “Organism, effect” value with microorganisms (C. jeikeium), with microorganisms (MRSA) and in the test on microorganisms (S. epidermidis) were “C. jeikeium (M)”, “MRSA (R)” and “S. epidermidis (M)”, respectively.
Regarding CGKLLEQKNFFLKTR [PF-521], the “Target(s) (microorganisms bound by the targeting peptide)” value with bacteria is on record as “S. epidermidis; also recorded: E. coli; also recorded: P. aeruginosa; also recorded: S. pneumoniae; also recorded: E. faecalis”. Also, in the test on microorganisms (S. pneumoniae), the “Organism, effect (morphology, biofilm and growth disruption)” value is reported as “S. pneumoniae (H)”.
As to DEIKVSDEEIEKFIKENNL [PF-597], the “Target(s) (microorganism bound by the targeting peptide)” value in the test with bacteria is given as “P. mirabilis”. Besides, the “Organism, effect (morphology, biofilm and growth disruption)” value in the test on microorganisms (E. faecalis) was “E. faecalis (A)”.
Consider FELVDWLETNLGKILKSKSA-NH2 [PF-522], for which the “Target(s) (microorganisms bound by the targeting peptide)” value with bacteria is given as “S. epidermidis; also recorded: E. coli; also recorded: P. aeruginosa; also recorded: S. pneumoniae; also recorded: E. faecalis”. The “Organism, effect (morphology, biofilm and growth disruption)” value in the test with microorganisms (S. pneumoniae) is on record as “S. pneumoniae (H)”.
Turning to “GNVHPESDFHNLIQFIKTFLYFTIFFKYFL [PF-C290]”, the “Target(s) (microorganism bound by the targeting peptide)” value with bacteria is on record as “A. naeslundii; also recorded: F. nucleatum; also recorded: P. gingivalis; also recorded: S. mutans; also recorded: T. denticola”. Besides, the “Organism, effect (morphology, biofilm and growth disruption)” value in the test with microorganisms (S. mutans) is listed as “S. mutans (F)”.
Consider HCVIGNVVDIANLLKRRAVYRDIADVIKMR [PF-071], for which the “Target(s)” value in the test with bacteria (setting [1]) is “S. epidermidis and E. coli and P. aeruginosa and C. albicans and MRSA”. Moreover, the “Organism, effect” value in the test on microorganisms (B. subtilis) is recorded as “B. subtilis (D)”; in the test with microorganisms (C. albicans), “C. albicans (B)”; with microorganisms (C. jejuni), “C. jejuni (A)”; with microorganisms (M. luteus), “M. luteus (R)”; with microorganisms (MRSA), “MRSA (C)”; in the test on microorganisms (S. epidermidis) it was “S. epidermidis (R)”. Further, the “Organism, effect” value with microorganisms (S. pneumoniae) is recorded as “S. pneumoniae (A)”.
Regarding HKNKLNIPHIKS [PF-477], the “Target(s) (microorganisms bound by the targeting peptide)” value in the test on bacteria is reported as “S. epidermidis; also recorded: M. luteus; also recorded: C. albicans; also recorded: S. pneumoniae; also recorded: C. jeikeium; also recorded: C. jejuni”. In addition, the “Organism, effect (morphology, biofilm and growth disruption)” value in the test with microorganisms (S. pneumoniae) was “S. pneumoniae (H)”.
Take KKFKIFVIINWFYHKYIILNFEENF [PF-C085]: the “Target(s) (microorganism bound by the targeting peptide)” value in the test on bacteria is given as “A. naeslundii; also recorded: F. nucleatum; also recorded: P. gingivalis; also recorded: S. mutans; also recorded: T. denticola”. The “Organism, effect (morphology, biofilm and growth disruption)” value with microorganisms (S. mutans) is given as “S. mutans (F)”.
Regarding LHVIRPRPELSELKFPITKILKVNKQGLKK [PF-752], the “Target(s) (microorganism bound by the targeting peptide)” value in the test with bacteria is “S. epidermidis and E. coli and MRSA and S. pneumoniae and E. faecalis”. Also, in the test on microorganisms (S. pneumoniae), the “Organism, effect (morphology, biofilm and growth disruption)” value is “S. pneumoniae (C)”.
As to LIQKGLNQTFIVVIRLNNFIKKS [PF-013], in the test with bacteria (setting [1]), the “Target(s)” value was “M. luteus and P. mirabilis and E. coli and P. aeruginosa and MRSA and S. pneumoniae and C. jeikeium and C. jejuni”. For the same substance, the “Organism, effect” value is “C. jeikeium (D)” in the test on microorganisms (C. jeikeium), “M. luteus (D)” with microorganisms (M. luteus), “MRSA (R)” with microorganisms (MRSA) and “S. epidermidis (C)” in the test with microorganisms (S. epidermidis).
“LMFFSENMDKRDTLSGKFRYFAGSKVIKLMNWLSENGK [PF-226]”: the “Target(s)” value in the test on bacteria (setting [2]) was “A. baumannii”. The “Organism, effect” value in the test with microorganisms (M. luteus) was “M. luteus (T)”; with microorganisms (S. epidermidis), “S. epidermidis (C)”.
Turning to LNFRAENKILEKIHISLIDTVEGSA [PF-575], the “Target(s) (microorganisms bound by the targeting peptide)” value in the test with bacteria was “M. luteus and E. coli and C. albicans and MRSA and S. pneumoniae and E. faecalis and C. jeikeium”. Also, the “Organism, effect (morphology, biofilm and growth disruption)” value with microorganisms (C. jeikeium) is “C. jeikeium (A)”; in the test on microorganisms (C. jejuni), “C. jejuni (R)”; with microorganisms (P. aeruginosa) it was “P. aeruginosa (A)”; in the test with microorganisms (S. pneumoniae) it was “S. pneumoniae (A)”.
For LSEMERRRLRKRA-NH2 [PF-529], in the test on bacteria, the “Target(s) (microorganisms bound by the targeting peptide)” value was “S. epidermidis and E. coli and C. albicans and MRSA and S. pneumoniae and E. faecalis and C. jeikeium”. Also, the “Organism, effect (morphology, biofilm and growth disruption)” value in the test with microorganisms (S. pneumoniae) is “S. pneumoniae (H)”.
Take LSLATFAKIFMTRSNWSLKRFNRL [PF-278]: the “Target(s)” value in the test with bacteria (setting [2]) is reported as “M. luteus; also recorded: A. baumannii”. Moreover, the “Organism, effect” value with microorganisms (C. albicans) was “C. albicans (B)”; with microorganisms (M. luteus) it was “M. luteus (R)”; with microorganisms (S. epidermidis), “S. epidermidis (I)”.
LSPRPIIVSRRSRADNNNDWSR [PF-143]: in the test on bacteria (setting [2]), the “Target(s)” value was “S. epidermidis and MRSA and C. jeikeium”. The “Organism, effect” value with microorganisms (P. aeruginosa) was “P. aeruginosa (C)”.
Regarding MGIIAGIIKFIKGLIEKFTGK [PF-006], the “Target(s)” value in the test with bacteria (setting [1]) is “S. epidermidis and M. luteus and E. coli and P. aeruginosa and MRSA and E. faecalis and C. jeikeium and C. jejuni”. In addition, the “Organism, effect” value with microorganisms (B. subtilis) is listed as “B. subtilis (I)”; with microorganisms (C. jejuni) it was “C. jejuni (D)”; in the test on microorganisms (M. luteus), “M. luteus (A)”; with microorganisms (MRSA), “MRSA (I)”; with microorganisms (S. epidermidis) it was “S. epidermidis (D)”; in the test on microorganisms (S. pneumoniae) it was “S. pneumoniae (R)”.
For MIRIRSPTKKKLNRNSISDWKSNTSGRFFY [PF-283], the “Target(s)” value in the test with bacteria (setting [2]) is reported as “B. subtilis; also recorded: B. fragilis; also recorded: C. difficile”. Besides, the “Organism, effect” value in the test on microorganisms (B. subtilis) is recorded as “B. subtilis (H)”; with microorganisms (S. epidermidis), “S. epidermidis (H)”.
On to “MKRRRCNWCGKLFYLEEKSKEAYCCKECRKKAKKVKK [PF-307]”, for which the “Target(s)” value in the test on bacteria (setting [2]) is on record as “S. epidermidis; also recorded: B. subtilis; also recorded: B. fragilis; also recorded: C. difficile”. Moreover, the figures for the “Organism, effect” value in the test with microorganisms (B. subtilis), in the test on microorganisms (C. albicans) and in the test on microorganisms (S. epidermidis) were “B. subtilis (H)”, “C. albicans (B)” and “S. epidermidis (T)”, respectively.
On to MQIFYIKTKIFLSFFLFLLIFSQCFYKIEE [PF-442], for which, in the test on bacteria, the “Target(s) (microorganisms bound by the targeting peptide)” value is recorded as “S. epidermidis; also recorded: E. coli; also recorded: C. albicans; also recorded: S. pneumoniae; also recorded: E. faecalis”. The “Organism, effect (morphology, biofilm and growth disruption)” value is “MRSA (M)” in the test with microorganisms (MRSA) and “S. pneumoniae (C)” in the test with microorganisms (S. pneumoniae).
For “NTNDLLQAFELMGLGMAGVFIVLGILYIVAELLIKIFPVNN [PF-C194]”, the “Target(s) (microorganism bound by the targeting peptide)” value in the test with bacteria is “A. naeslundii; also recorded: F. nucleatum; also recorded: P. gingivalis; also recorded: S. mutans; also recorded: T. denticola”. The figures for the “Organism, effect (morphology, biofilm and growth disruption)” value in the test with microorganisms (F. nucleatum), in the test with microorganisms (P. gingivalis) and in the test with microorganisms (S. mutans) were “F. nucleatum (T)”, “P. gingivalis (T)” and “S. mutans (F)”, respectively.
In the case of NYAVVSHT [PF-209], the “Target(s)” value with bacteria (setting [2]) is “C. albicans; also recorded: C. jeikeium; also recorded: C. jejuni”. In addition, the “Organism, effect” value is given as “MRSA (I)” with microorganisms (MRSA), “P. aeruginosa (H)” with microorganisms (P. aeruginosa) and “S. epidermidis (C)” in the test with microorganisms (S. epidermidis).
As to PDAPRTCYHKPILAALSRIVVTDR [PF-524], the “Target(s) (microorganisms bound by the targeting peptide)” value in the test with bacteria was “S. epidermidis and E. coli and P. aeruginosa and C. albicans and MRSA and S. pneumoniae and E. faecalis and C. jeikeium”. In addition, the “Organism, effect (morphology, biofilm and growth disruption)” value in the test on microorganisms (E. coli) was “E. coli (M)”; with microorganisms (E. faecalis), “E. faecalis (C)”; with microorganisms (MRSA), “MRSA (C)”; in the test on microorganisms (S. pneumoniae) it was “S. pneumoniae (M)”.
In the case of “PF-002 (chain 1 NDDAQ; chain 2 NDDAQ; Peptide with targeting and/or antimicrobial activity)”, the “Target(s)” value in the test on bacteria (setting [1]) was “S. epidermidis; also recorded: P. mirabilis; also recorded: C. albicans; also recorded: C. jeikeium; also recorded: C. jejuni”. Besides, the “Organism, effect” value is given as “B. subtilis (R)” in the test with microorganisms (B. subtilis) and “S. pneumoniae (H)” in the test on microorganisms (S. pneumoniae).
Take “PF-S029 (TSDTQSQSPWLFDNADIVNIYPVQLMHSSDND; Peptide with targeting and/or antimicrobial activity)”: the “Target(s) (microorganism bound by the targeting peptide)” value in the test on bacteria is “M. luteus; also recorded: P. mirabilis; also recorded: E. coli; also recorded: C. albicans; also recorded: C. jeikeium; also recorded: C. jejuni”.
Take “Py Pf 12 ([dS]KG[Orn][dS]SGK[dOrn]ES; bridge (positions not given here); not fully specified (bridges))”: the “Target(s)” value in the test with bacteria (setting [1]) is listed as “P. fluorescens”.
As for “TT-305 (ARNALNMRDVPVDAAIIGIIDGMDEE; Peptide with targeting and/or antimicrobial activity)”, the “Target(s)” value in the test with bacteria (setting [1]) is recorded as “F. nucleatum”.
On the same count and under the same terms, then “TT-306 (KILNEAEGKLLKVIEKNGEIDIEEI; Peptide with targeting and/or antimicrobial activity)”, with “F. nucleatum”; and “TT-307 (NGDKKAKEELDKWDEVIKELNIQF; Peptide with targeting and/or antimicrobial activity)”, with “F. nucleatum”.
In the case of “TT-308 (GLVIIPNLIALIILFSQVRQQTKDYFSNPKLSSR; Peptide with targeting and/or antimicrobial activity)”, the “Target(s)” value in the test on bacteria (setting [1]) was “F. nucleatum”.
On the same count and under the same terms, the result for “TT-309 (EPLPLTKYDKKDTEMKKVFKEILAGKVGYEKEEE; Peptide with targeting and/or antimicrobial activity)” reads “F. nucleatum”.
On to “TT-310 (TKLKKNNKLLSAKKENTLHTKDK; Peptide with targeting and/or antimicrobial activity)”, for which the “Target(s)” value in the test with bacteria (setting [1]) was “F. nucleatum”.
Same read-out and setting: the result for “TT-311 (AIFDAMHNL; Peptide with targeting and/or antimicrobial activity)” reads “S. mutans; also recorded: S. sobrinus”.
As to VYSFLYVLVIVRKLLSMKKRIERL [PF-499], the “Target(s) (microorganisms bound by the targeting peptide)” value in the test with bacteria is reported as “S. mutans; also recorded: E. coli”.

The values are drawn from patent publication US9597407B2, “Targeted antimicrobial moieties” (C3 Jian, Inc., priority 2009, dated 2017).
